Source: patent US6737383B1, “Herbicidal oxadiazolidines” (priority 1999, dated 2004)

Experiments:
sugar beet = assay: Test B pre/postemergence sugar beet; type: in vivo, Beta vulgaris
Summary of the method: (§1)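 Test chemicals in a non-phytotoxic solvent mixture with surfactant were sprayed preemergence onto planted seeds and postemergence onto plants 2 to 18 cm tall (1- to 4-leaf stage). After twelve to sixteen days in a greenhouse, injury was visually rated against untreated controls from 0 (no effect) to 10 (complete control).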

wild oat = assay: Test B pre/postemergence wild oat; type: in vivo, Avena fatua
Summary of the method: as §1

corn = assay: Test B pre/postemergence corn; type: in vivo, Zea mays
Summary of the method: as §1

soybean = assay: Test B pre/postemergence soybean; type: in vivo, Glycine max
Summary of the method: as §1

surinam grass = assay: Test B pre/postemergence surinam grass; type: in vivo, Brachiaria decumbens
Summary of the method: as §1

blackgrass = assay: Test B pre/postemergence blackgrass; type: in vivo, Alopecurus myosuroides
Summary of the method: as §1

velvetleaf = assay: Test B pre/postemergence velvetleaf; type: in vivo, Abutilon theophrasti
Summary of the method: as §1

cocklebur = assay: Test B pre/postemergence cocklebur; type: in vivo, Xanthium strumarium
Summary of the method: as §1

pigweed = assay: Test B pre/postemergence pigweed; type: in vivo, Amaranthus retroflexus
Summary of the method: as §1

wheat = assay: Test B pre/postemergence wheat; type: in vivo, Triticum aestivum
Summary of the method: as §1

purple nutsedge = assay: Test B pre/postemergence purple nutsedge; type: in vivo, Cyperus rotundus
Summary of the method: as §1

duck salad = assay: Test B flood test duck salad; type: in vivo, Heteranthera limosa
Summary of the method: (§2)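 Read-out is a visual response score from 0 (no effect) to 10 (complete control), assigned by comparison with untreated controls. Treatment was applied at the 2-leaf stage, and plants stayed in the greenhouse for twelve to sixteen days before scoring.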

rice = assay: Test B flood test rice; type: in vivo, Oryza sativa
Summary of the method: as §2

giant foxtail = assay: Test B pre/postemergence giant foxtail; type: in vivo, Setaria faberii
Summary of the method: as §1

crabgrass = assay: Test B pre/postemergence crabgrass; type: in vivo, Digitaria sanguinalis
Summary of the method: as §1

[1] = Postemergence, Rate 250 g/ha, scale 0 to 10
[2] = Postemergence, Rate 500 g/ha, scale of 0 to 10 where 0 is no effect and 10 is complete control
[3] = Preemergence, Rate 62 g/ha, scale 0 to 10 (0 no effect, 10 complete control)
[4] = Preemergence, Rate 125 g/ha, scale of 0 to 10 where 0 is no effect and 10 is complete control
[5] = Preemergence, Rate 250 g/ha, scale 0 to 10, 0 is no effect, 10 is complete control
[6] = Preemergence, Rate 500 g/ha, scale 0 to 10, 0 is no effect, 10 is complete control
[7] = Rate 125 g/ha, Postemergence, scale 0 to 10, 0 is no effect, 10 is complete control
[8] = Rate 62 g/ha, Postemergence, scale of 0 to 10 where 0 is no effect and 10 is complete control
[9] = Preemergence, Rate 250 g/ha, scale of 0 to 10 where 0 is no effect and 10 is complete control
[10] = Postemergence block (flood test species), Rate 250 g/ha, scale 0 to 10
[11] = Postemergence section (flood test species), Rate 500 g/ha, scale of 0 to 10 where 0 is no effect and 10 is complete control
[12] = Rate 125 g/ha, Postemergence section (flood test species), scale 0 to 10, 0 is no effect, 10 is complete control

C=C[Si](C)(C)Cn1c(=O)on(C(=O)N(c2ccc(Cl)cc2)C(C)C)c1=O [Compound 425]
9: Corn plant response rating (corn; [6]) | B. signalgrass plant response rating (surinam grass; Preemergence, Rate 500 g/ha, scale of 0 to 10 where 0 is no effect and 10 is complete control) | Blackgrass plant response rating (blackgrass; [2]) | Plant response rating, Blackgrass (blackgrass; [4]) | Blackgrass plant response rating (blackgrass; [9]) | Giant foxtail plant response rating (giant foxtail; [2]) | Crabgrass plant response rating (crabgrass; [2]) | Plant response rating, Crabgrass (crabgrass; [3])
4: Sugarbeets plant response rating (sugar beet; [2]) | Plant response rating, Wild oats (wild oat; [4]) | Wild oats plant response rating (wild oat; [5]) | Wheat plant response rating (wheat; [6]) | Crabgrass plant response rating (crabgrass; [8])
2: Sugarbeets plant response rating (sugar beet; [5]) | Sugarbeets plant response rating (sugar beet; [6]) | Sugarbeets plant response rating (sugar beet; [7]) | Wild oats plant response rating (wild oat; [1]) | Plant response rating, Wild oats (wild oat; [3]) | Corn plant response rating (corn; [2]) | Soybean plant response rating (soybean; [1]) | B. signalgrass plant response rating (surinam grass; [7]) | Blackgrass plant response rating (blackgrass; [8]) | Velvetleaf plant response rating (velvetleaf; [2]) | Velvetleaf plant response rating (velvetleaf; [5]) | Cocklebur plant response rating (cocklebur; [6]) | Redroot pigweed plant response rating (pigweed; [1]) | Redroot pigweed plant response rating (pigweed; [2]) | Plant response rating, Wheat (wheat; [3]) | Plant response rating, Wheat (wheat; [4])
1: Soybean plant response rating (soybean; [7])
0: Plant response rating, Sugarbeets (sugar beet; [3]) | Plant response rating, Sugarbeets (sugar beet; [4]) | Wild oats plant response rating (wild oat; [7]) | Corn plant response rating (corn; [1]) | Plant response rating, Corn (corn; [3]) | Plant response rating, Corn (corn; [4]) | Corn plant response rating (corn; [5]) | Corn plant response rating (corn; [8]) | Corn plant response rating (corn; [7]) | Plant response rating, Soybean (soybean; [3]) | Plant response rating, Soybean (soybean; [4]) | Soybean plant response rating (soybean; [5]) | Soybean plant response rating (soybean; [6]) | B. signalgrass plant response rating (surinam grass; [8]) | Velvetleaf plant response rating (velvetleaf; [1]) | Plant response rating, Velvetleaf (velvetleaf; [3]) | Plant response rating, Velvetleaf (velvetleaf; [4]) | Velvetleaf plant response rating (velvetleaf; [7]) | Cocklebur plant response rating (cocklebur; [1]) | Cocklebur plant response rating (cocklebur; [2]) | Plant response rating, Cocklebur (cocklebur; [3]) | Plant response rating, Cocklebur (cocklebur; [4]) | Cocklebur plant response rating (cocklebur; [5]) | Cocklebur plant response rating (cocklebur; [8]) | Cocklebur plant response rating (cocklebur; [7]) | Plant response rating, Redroot pigweed (pigweed; [3]) | Plant response rating, Redroot pigweed (pigweed; [4]) | Redroot pigweed plant response rating (pigweed; [7]) | Wheat plant response rating (wheat; [7]) | Nutsedge plant response rating (purple nutsedge; [1]) | Nutsedge plant response rating (purple nutsedge; [2]) | Plant response rating, Nutsedge (purple nutsedge; [3]) | Plant response rating, Nutsedge (purple nutsedge; [4]) | Nutsedge plant response rating (purple nutsedge; [7]) | Ducksalad plant response rating (duck salad; [10]) | Ducksalad plant response rating (duck salad; [11]) | Ducksalad plant response rating (duck salad; Rate 62 g/ha, Postemergence (flood test species), scale of 0 to 10 where 0 is no effect and 10 is complete control) | Ducksalad plant response rating (duck salad; [12]) | Rice plant response rating (rice; [10]) | Rice plant response rating (rice; [11]) | Rice plant response rating (rice; [12])
5: Nutsedge plant response rating (purple nutsedge; [6])
8: B. signalgrass plant response rating (surinam grass; [2]) | Plant response rating, B. signalgrass (surinam grass; [4]) | B. signalgrass plant response rating (surinam grass; [9]) | Blackgrass plant response rating (blackgrass; [1]) | Giant foxtail plant response rating (giant foxtail; [1]) | Crabgrass plant response rating (crabgrass; [1])
6: Velvetleaf plant response rating (velvetleaf; [6]) | Wheat plant response rating (wheat; [2]) | Giant foxtail plant response rating (giant foxtail; [8])
10: Wild oats plant response rating (wild oat; [6]) | Blackgrass plant response rating (blackgrass; [6]) | Plant response rating, Giant foxtail (giant foxtail; [3]) | Plant response rating, Giant foxtail (giant foxtail; [4]) | Giant foxtail plant response rating (giant foxtail; [5]) | Giant foxtail plant response rating (giant foxtail; [6]) | Plant response rating, Crabgrass (crabgrass; [4]) | Crabgrass plant response rating (crabgrass; [5]) | Crabgrass plant response rating (crabgrass; [6])
7: B. signalgrass plant response rating (surinam grass; Postemergence, Rate 250 g/ha, scale 0 to 10, 0 no effect, 10 complete control) | Plant response rating, Blackgrass (blackgrass; [3]) | Giant foxtail plant response rating (giant foxtail; [7]) | Crabgrass plant response rating (crabgrass; [7])
3: Sugarbeets plant response rating (sugar beet; [1]) | Wild oats plant response rating (wild oat; [2]) | Soybean plant response rating (soybean; [2]) | Plant response rating, B. signalgrass (surinam grass; [3]) | Blackgrass plant response rating (blackgrass; [7]) | Redroot pigweed plant response rating (pigweed; [5]) | Redroot pigweed plant response rating (pigweed; [6]) | Wheat plant response rating (wheat; [1]) | Wheat plant response rating (wheat; [5]) | Nutsedge plant response rating (purple nutsedge; [5])
